Assay results published in US5432160A, “Nutrient composition” (Kyowa Hakko Kohyo Co., Ltd., priority 1993, dated 1995).
Peptide text beside a SMILES is read from it.

How the values were obtained:
Assay type in all cases: physicochemical
[1] = Solubility: maximum amount dissolved in 1 liter of water; conditions: 25° C.
Procedure: Each of β-alanyl-L-glutamine, L-alanyl-L-glutamine (control) and L-glutamine (control) was dissolved into 1 liter of water (25° C.). Each of their maximum amounts dissolved in the water was determined.

[2] = Heat stability: residual rate after heat sterilization in an autoclave; conditions: aqueous 10 mM solution, pH 6.5, autoclave 120° C.
Procedure: Each of aqueous 10 mM solutions of β-alanyl-L-glutamine, L-alanyl-L-glutamine (control) and L-glutamine (control) adjusted at pH 6.5 with sodium hydroxide was heated in an autoclave at 120° C. for a period of 20 minutes or 120 minutes. The residual rate of each of the compounds after heating was determined.

[3] = as above; conditions: aqueous 10 mM solution, pH 6.5, autoclave 120° C., 20 minutes

Amount Dissolved in 1 liter of Water [1]	Amount Dissolved in 1 liter of Water ([1]; listed as β-alanyl-L-glutamine)	Residual Rate after Heat Sterilization 20 min. [2]	Residual Rate after Heat Sterilization 120 min. [2]	Residual Rate after Heat Sterilization 20 min. ([2]; listed as L-alanyl-L-glutamine)	Residual Rate after Heat Sterilization 120 min. ([2]; listed as L-glutamine)	Share decomposed after heating [3]	SMILES	Residual Rate after Heat Sterilization 20 min. ([2]; listed as β-alanyl-L-glutamine)
952 g	highest solubility	100%	99%	–	–	–	NCCC(=O)N[C@@H](CCC(N)=O)C(=O)O [β-Alanyl-L-glutamine, β-alanyl-L-glutamine]	remained entirely without being decomposed
599 g	–	98%	91%	partly decomposed	–	–	C[C@H](N)C(=O)N[C@@H](CCC(N)=O)C(=O)O [L-Alanyl-L-glutamine, L-alanyl-L-glutamine] (H-Ala-Gln-OH)	–
43 g	–	9%	0%	–	decomposed completely	about 90%	NC(=O)CC[C@H](N)C(=O)O [L-Glutamine, L-glutamine]	–
